For one series, the system named is aurora kinase. As to conditions: aurora kinase isoform selectivity, Choudary et al. 2015; cited from earlier work.
In series [1] the test system is survivin, Aurora A, Aurora B, BubR1, CDC20 and MAD2L1 gene transcripts in H929 multiple myeloma cells. Kind of series: Microarray gene expression profiling of H929 cells. The format is cell-based. As to conditions: H929 cells, 2, 3, or 4 μM, 24 hours or 48 hours, Affymetrix microarray. On the procedure:
Microarray gene expression profiling was performed in H929 multiple myeloma (MM) cells to determine whether key mitotic regulators are down regulated by […]. H929 multiple myeloma cells were treated for 24 hours or 48 hours with 2, 3, or 4 μM of Compound A. Total RNA was extracted from the cells and subjected to gene expression profiling using an Affymetrix microarray system (Santa Clara, Calif.).

Series [2] has as its system survivin, Aurora A, Aurora B, BubR1, CDC20 and MAD2L1 gene transcripts in H929 MM, U266 MM and Jeko-1 MCL cell lines. Kind of series: qPCR analysis of mitotic regulator downregulation across MM and MCL cell lines. The format is cell-based. As to conditions: U266 MM and Jeko-1 MCL cells. As to the method:
Independent qPCR validation of mitotic regulator downregulation by Compound A across MM and MCL cell lines was performed using H929 MM, U266 MM and Jeko-1 MCL cell lines. The cells were treated with Compound A. Total RNA was extracted and gene expression was measured by quantitative polymerase chain reaction (PCR) analysis.

Series [3] relates to Jurkat T cell lymphoma cells. Description: Annexin V / propidium iodide flow cytometry apoptosis assay. The format is cell-based. As to conditions: 72 hours, 3 μM Compound A or B, 0.01 μM alisertib, alone or combined. On the procedure:
To determine the extent that the combination therapies of Compound A/alisertib and Compound B/alisertib promote induction of apoptosis, Jurkat T cell lymphoma cells were treated with: DMSO, 3 μM of Compound B, 3 μM of Compound A, 0.01 μM of alisertib, a combination of Compound B/alisertib, or a combination of Compound A/alisertib, for 72 hours. Cells were then harvested and stained with Annexin V and propidium iodide as above. Flow cytometry analysis was then used to measure the number of healthy and apoptotic cells under each treatment condition.
In general terms: Flow cytometry measures light scatter and fluorescence of single cells or particles in a stream.

For series [4], the system named is Jeko-1 mantle cell lymphoma, SU-DHL-4 B cell lymphoma, and Jurkat T cell lymphoma cells. The series is described as above. It counts as cell-based. The conditions noted are these: 72 hours; 3 μM Compound B, 0.01 or 0.03 μM alisertib, alone or combined; single-agent effect in some cell lines only. On the procedure:
To test for induction of apoptosis, Jeko-1 mantle cell lymphoma, SU-DHL-4 B cell lymphoma, and Jurkat T cell lymphoma cells were treated for 72 hours with either: DMSO, 3 μM of Compound B, 0.01 μM of alisertib, 0.03 μM of alisertib, or a combination of both Compound B and alisertib for 72 hrs. Cells were then harvested and stained with Annexin V, which recognizes an epitope on cells in the early stages of apoptosis. Cells were also stained with propidium iodide, which is excluded from cells with intact membranes, thus marking only dead cells. Flow cytometry analysis was then performed to measure the number of healthy and apoptotic cells under each treatment condition.

For the compound `CO[C@@H](C(=O)N1Cc2[nH]nc(NC(=O)c3ccc(N4CCN(C)CC4)cc3)c2C1)c1ccccc1` [Danusertib], the Selectivity entry with aurora kinase was “Pan”. Regarding `Cc1cc(Nc2ncc(F)c(N[C@H]3[C@@H](C(N)=O)[C@@H]4C=C[C@H]3C4)n2)ccc1N1CCN(C)CC1` [MSC 1992371A], the Selectivity entry in the series on aurora kinase is reported as “Pan”. For `Cc1cc(Nc2cc(N3CCN(C)CC3)nc(Sc3ccc(NC(=O)C4CC4)cc3)n2)[nH]n1` [Tozasertib], the Selectivity result in the series on aurora kinase is listed as “Pan”.

For `O=C(CCCCCCNC(=O)c1cnc(N(c2ccccc2)c2ccccc2)nc1)NO` [Compound A, 2-(diphenylamino)-N-(7-(hydroxyamino)-7-oxoheptyl)pyrimidine-5-carboxamide], the “expression of key mitotic regulatory genes (relative fold induction vs DMSO)” value in series [1] is on record as “reduced the expression”. For the same compound, in series [2], the “expression of key mitotic regulatory genes (relative to RPLP1, vs DMSO)” value is recorded as “reduced the expression”. Moreover, in series [3], the “percentage of cells undergoing apoptosis” value is given as “minimal induction of apoptosis”.

In the case of `Cc1cc(Nc2cc(N3CCN(C)CC3)nc(/C=C/c3ccccc3)n2)n[nH]1` [ENMD- 2076], the Selectivity entry with aurora kinase is “Aurora A”. Regarding `O=C(CCCCCCNC(=O)c1cnc(N(c2ccccc2)c2ccccc2Cl)nc1)NO` [Compound B, 2-((2-chlorophenyl)(phenyl)amino)-N-(7-(hydroxyamino)-7-oxoheptyl)pyrimidine-5-carboxamide], the results for the “percentage of cells undergoing apoptosis” value in series [4] and in series [3] were “some induction of apoptosis” and “minimal induction of apoptosis”, respectively.

For the compound `CCN(CCCOc1ccc2c(Nc3cc(CC(=O)Nc4cccc(F)c4)[nH]n3)ncnc2c1)CCOP(=O)(O)O` [Barasertib], in the series with aurora kinase, the Selectivity entry was “Aurora B”. Consider `COc1cc(Nc2ncc3c(n2)-c2ccc(Cl)cc2C(c2c(F)cccc2OC)=NC3)ccc1C(=O)O` [Alisertib], for which the “percentage of cells undergoing apoptosis” value in series [4] is “some induction of apoptosis”; in series [3] it was “minimal induction of apoptosis”. In the series on aurora kinase, the Selectivity result is on record as “Aurora A”. For `O=C(Nc1c[nH]nc1-c1nc2cc(CN3CCOCC3)ccc2[nH]1)NC1CC1` [AT-9283], the Selectivity result in the series on aurora kinase was “Aurora A and Aurora B”. For `O=C(O)[C@]1(Cc2cccc(Nc3nccs3)n2)CC[C@@H](Oc2cccc(Cl)c2F)CC1` [MK-5108], the Selectivity result in the series on aurora kinase is “Aurora A”.

The record behind these values is patent US11357776B2, “Pharmaceutical combinations comprising a histone deacetylase inhibitor and an aurora kinase inhibitor and methods of use thereof” (ACETYLON PHARMACEUTICALS, INC., priority 2016, dated 2022).
